Measured values from publication PMC9271048, “Probing strigolactone perception mechanisms with rationally designed small-molecule agonists stimulating germination of root parasitic weeds” (Nature Communications, 2022).

Legend:
ShHTL7 = ShHTL7 (Striga hermonthica, UniProt A0A0M3PNA2); design: method as in PMID 30021834; conditions: microscale thermophoresis measurements; cited from earlier work
AtD14-AtMAX2 interaction = molecular target: T1, AtD14-AtMAX2 interaction (Arabidopsis thaliana, UniProt Q9SQR3); experiment: Yeast two-hybrid assay AtD14-AtMAX2; assay type: cell-based; conditions: up to 200 μM
T1 construct: the CDS of ShHTL7 and AtD14 were cloned into yeast expression vector pBrigde; expressed in transfected cells; host or cells: yeast AH109
Protocol: To construct plasmids for yeast two-hybrid assays, the CDS of ShHTL7 and AtD14 were cloned into yeast expression vector pBrigde to generate BD-ShHTL7 and BD-AtD14, and the CDS of ShMAX2, AtMAX2, SMAX1 were cloned into pGADT7 to make Gal4 DNA activation domain (AD) constructs, respectively. Primers used for yeast expression vector construction are listed in Supplementary Table 6. Yeast two-hybrid assays were performed using the Yeastmaker Yeast Transformation System 2 (Clontech). In brief, Yeast AH109 cells were co-transformed with specific bait and prey constructs and coated on selective growth medium SD/-Leu-Trp for 3 days at 30 °C, pick the positive constructs into liquid selective growth medium SD/-Leu-Trp shaking for 36 h at 30 °C. Washed yeast cells three times and diluted, made sure OD600 reached 2.5, then serial 10-fold dilutions of yeast cultures were spotted onto selective growth mediums that were supplemented with different concentrations of rac-GR24 and tested molecules, respectively. All yeast transformants were grown on a selective growth medium at 30 °C for 3 days.

ShHTL7 T124K = ShHTL7 T124K (Striga hermonthica, UniProt A0A0M3PNA2); experiment: YLG competitive inhibition, ShHTL7 mutant T124K; assay type: biochemical; conditions: read-out: IC50 (YLG), ShHTL7 mutant, source data average, Supplementary Fig. 20b
Description: (§1) To clarify the dynamics of how the catalytic triad affects hydrolysis by ShHTL7, we performed MD simulations to study the differences between (R)-4a and (S)-4a (Supplementary Fig. 21). […] To further characterize our computational models, we performed mutation studies of the key residues in the active pockets that may have interactions with our molecules. Indeed, a number of the mutations of specific residues altered the IC50 values, supporting our simulated models (Supplementary Fig. 20b).
(§2) The excitation and emission wavelengths of YLG are 480 and 520 nm, respectively. We used a fluorescence spectrophotometer (CARY Eclipse) to detect the fluorescence intensity change of YLG during the enzymatic hydrolysis assay process. All the testing compounds and YLG were dissolved in DMSO and prepared as stock solutions just before use. […] The changes of fluorescence at 520 nm of each well were recorded every 1 min for 30 min. Using the reaction mixture without adding enzyme and tested compounds as the background control. After subtracting the background hydrolysis, a linear fluorescence increase in 8 min was used for further inspection. The IC50 values were determined via fitting relative inhibition percentages with the varying concentrations of compounds in Microsoft Excel.
(§3) Supplementary Fig. 20. […]

ShHTL7 M219A = ShHTL7 M219A (Striga hermonthica, UniProt A0A0M3PNA2, M219A); experiment: YLG competitive inhibition, ShHTL7 mutant M219A; assay type: biochemical
Description: as §1, §2, §3

ShHTL7 F134K = ShHTL7 F134K (Striga hermonthica, UniProt A0A0M3PNA2, F134K); experiment: YLG competitive inhibition, ShHTL7 mutant F134K; assay type: biochemical
Description: as §1, §2, §3

ShHTL7 T157Y = ShHTL7 T157Y (Striga hermonthica, UniProt A0A0M3PNA2, T157Y); experiment: YLG competitive inhibition, ShHTL7 mutant T157Y; assay type: biochemical
Description: as §1, §2, §3

ShHTL7 T142L = ShHTL7 T142L (Striga hermonthica, UniProt A0A0M3PNA2, T142L); experiment: YLG competitive inhibition, ShHTL7 mutant T142L; assay type: biochemical
Description: as §1, §2, §3

ShHTL7 T190F = ShHTL7 T190F (Striga hermonthica, UniProt A0A0M3PNA2, T190F); experiment: YLG competitive inhibition, ShHTL7 mutant T190F; assay type: biochemical
Description: as §1, §2, §3

ShHTL7 Y26F = ShHTL7 Y26F (Striga hermonthica, UniProt A0A0M3PNA2, Y26F); experiment: YLG competitive inhibition, ShHTL7 mutant Y26F; assay type: biochemical
Description: as §1, §2, §3

ShHTL7 S95C = ShHTL7 S95C (Striga hermonthica, UniProt A0A0M3PNA2, S95C); experiment: YLG competitive inhibition, ShHTL7 mutant S95C; assay type: biochemical
Description: as §1, §2, §3

ShHTL7 M219V = ShHTL7 M219V (Striga hermonthica, UniProt A0A0M3PNA2, M219V); experiment: YLG competitive inhibition, ShHTL7 mutant M219V; assay type: biochemical
Description: as §1, §2, §3

ShHTL7H246A = experiment: Hydrolysis reaction analysis with ShHTL7 H246A mutant; assay type: biochemical, Striga hermonthica; conditions: Supplementary Fig. 20a
Protocol: Compounds 4a, (R)- and (S)-4a, 4g-i, and rac-GR24 were dissolved in DMSO and prepared as stock solution ([…]) just before use. A 200 μL of the reaction solution consisting of PBS buffer (pH 7.3), 10 μM samples, and 10 μg recombinant ShHTL7 or its mutants was incubated at 30 °C for 30 min; with the reaction solution (200 μL) containing PBS buffer (pH 7.3) and 10 μM samples as the blank control[40],[52]. Subsequently, the reaction was terminated by adding 200 μL of methanol, and then the reaction mixture was shaken for 10 s and centrifuged at 5310 × g for 60 s. The supernatant was filtered and the remaining amount of samples was analyzed by HPLC. The relative percentages of hydrolysis were obtained by using the amount of compounds in blank control as reference.
Supplementary Fig. 20. Effect of key amino acid residues on the hydrolysis of ShHTL7 and binding affinity. a, Relative percentage of hydrolysis of compound (S)-4a by ShHTL7S95A, ShHTL7H246A, and ShHTL7. The error bar indicates SD (n = 3 biologically independent experiments). b, Competitive mutants of ShHTL7 inhibitory activity in YLG assay. Data are the means ± SD (n = 3 biologically independent experiments).
(1 picture or pasted object on this page, not shown here)

ShHTL7 T190F, sequence (A0A0M3PNA2 whole entry T190F): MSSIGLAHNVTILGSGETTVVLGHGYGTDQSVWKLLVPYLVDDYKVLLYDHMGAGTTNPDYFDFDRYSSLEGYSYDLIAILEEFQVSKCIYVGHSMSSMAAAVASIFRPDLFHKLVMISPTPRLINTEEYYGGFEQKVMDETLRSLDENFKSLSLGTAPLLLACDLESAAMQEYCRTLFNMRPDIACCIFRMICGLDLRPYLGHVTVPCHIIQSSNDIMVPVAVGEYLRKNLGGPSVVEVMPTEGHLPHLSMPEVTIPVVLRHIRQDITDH
ShHTL7 M219A, sequence (A0A0M3PNA2 whole entry M219A): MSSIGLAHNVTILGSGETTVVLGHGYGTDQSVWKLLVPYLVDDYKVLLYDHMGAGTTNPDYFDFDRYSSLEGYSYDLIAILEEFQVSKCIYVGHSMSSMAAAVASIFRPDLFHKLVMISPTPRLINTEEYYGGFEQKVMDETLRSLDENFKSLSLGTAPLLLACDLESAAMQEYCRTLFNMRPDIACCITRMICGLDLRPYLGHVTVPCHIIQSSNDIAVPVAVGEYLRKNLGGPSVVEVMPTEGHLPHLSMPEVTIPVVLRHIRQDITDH
ShHTL7 S95C, sequence (A0A0M3PNA2 whole entry S95C): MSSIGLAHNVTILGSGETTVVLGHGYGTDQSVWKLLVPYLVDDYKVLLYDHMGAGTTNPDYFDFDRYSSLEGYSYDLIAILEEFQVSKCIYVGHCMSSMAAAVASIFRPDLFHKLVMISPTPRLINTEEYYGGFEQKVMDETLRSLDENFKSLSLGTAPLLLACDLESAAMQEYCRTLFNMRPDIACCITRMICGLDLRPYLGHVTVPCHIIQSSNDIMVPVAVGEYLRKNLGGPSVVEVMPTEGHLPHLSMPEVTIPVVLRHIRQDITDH
ShHTL7 T124K, sequence (A0A0M3PNA2 entry or part of it, stated change not applied): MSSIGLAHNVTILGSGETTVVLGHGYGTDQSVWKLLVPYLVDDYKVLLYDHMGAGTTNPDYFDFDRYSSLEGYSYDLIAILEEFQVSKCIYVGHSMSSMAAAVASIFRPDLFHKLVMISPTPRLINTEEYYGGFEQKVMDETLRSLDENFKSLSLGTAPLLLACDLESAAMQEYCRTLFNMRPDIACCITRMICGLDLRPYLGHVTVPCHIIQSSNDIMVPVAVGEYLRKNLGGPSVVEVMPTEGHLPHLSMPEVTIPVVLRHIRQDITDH
ShHTL7 Y26F, sequence (A0A0M3PNA2 whole entry Y26F): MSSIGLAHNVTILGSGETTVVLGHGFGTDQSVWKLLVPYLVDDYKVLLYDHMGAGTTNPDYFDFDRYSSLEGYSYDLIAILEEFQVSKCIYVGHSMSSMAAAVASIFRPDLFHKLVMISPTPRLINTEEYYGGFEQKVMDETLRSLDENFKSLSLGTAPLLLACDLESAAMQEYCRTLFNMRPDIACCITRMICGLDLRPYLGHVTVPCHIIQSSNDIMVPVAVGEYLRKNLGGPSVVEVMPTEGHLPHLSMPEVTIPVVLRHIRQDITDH
ShHTL7 M219V, sequence (A0A0M3PNA2 whole entry M219V): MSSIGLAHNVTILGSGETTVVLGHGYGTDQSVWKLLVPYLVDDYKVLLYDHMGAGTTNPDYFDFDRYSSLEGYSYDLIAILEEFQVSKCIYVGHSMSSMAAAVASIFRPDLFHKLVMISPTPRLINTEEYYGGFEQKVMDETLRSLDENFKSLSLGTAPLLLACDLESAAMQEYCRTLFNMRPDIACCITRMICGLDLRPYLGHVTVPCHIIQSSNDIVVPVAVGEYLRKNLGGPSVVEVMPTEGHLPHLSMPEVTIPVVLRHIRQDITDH
ShHTL7 T142L, sequence (A0A0M3PNA2 whole entry T142L): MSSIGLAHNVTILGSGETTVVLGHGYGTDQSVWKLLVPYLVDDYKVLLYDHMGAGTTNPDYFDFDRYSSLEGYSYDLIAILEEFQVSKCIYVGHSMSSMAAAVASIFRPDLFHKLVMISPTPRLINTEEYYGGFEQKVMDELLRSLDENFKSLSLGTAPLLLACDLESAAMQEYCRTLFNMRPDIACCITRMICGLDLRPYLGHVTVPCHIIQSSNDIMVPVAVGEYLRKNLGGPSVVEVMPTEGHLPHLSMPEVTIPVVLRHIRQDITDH
ShHTL7 F134K, sequence (A0A0M3PNA2 whole entry F134K): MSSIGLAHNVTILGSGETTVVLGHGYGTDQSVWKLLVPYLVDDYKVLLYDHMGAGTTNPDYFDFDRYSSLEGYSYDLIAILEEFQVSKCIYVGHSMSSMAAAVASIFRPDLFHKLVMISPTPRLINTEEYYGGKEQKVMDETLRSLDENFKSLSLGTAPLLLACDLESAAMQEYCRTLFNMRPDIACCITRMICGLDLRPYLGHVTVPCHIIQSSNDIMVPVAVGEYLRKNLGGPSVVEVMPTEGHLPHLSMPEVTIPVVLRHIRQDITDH
ShHTL7 T157Y, sequence (A0A0M3PNA2 whole entry T157Y): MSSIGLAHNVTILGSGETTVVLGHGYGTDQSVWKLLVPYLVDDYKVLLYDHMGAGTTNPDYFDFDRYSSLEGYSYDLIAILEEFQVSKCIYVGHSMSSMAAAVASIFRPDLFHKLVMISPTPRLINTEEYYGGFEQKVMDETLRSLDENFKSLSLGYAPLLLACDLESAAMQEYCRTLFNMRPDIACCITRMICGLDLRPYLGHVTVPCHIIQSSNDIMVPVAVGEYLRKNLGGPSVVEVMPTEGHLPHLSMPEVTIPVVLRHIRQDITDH
ShHTL7, sequence (A0A0M3PNA2 entry or part of it): as the sequence (A0A0M3PNA2 entry or part of it, stated change not applied) above
T1 sequence (Q9SQR3 whole entry): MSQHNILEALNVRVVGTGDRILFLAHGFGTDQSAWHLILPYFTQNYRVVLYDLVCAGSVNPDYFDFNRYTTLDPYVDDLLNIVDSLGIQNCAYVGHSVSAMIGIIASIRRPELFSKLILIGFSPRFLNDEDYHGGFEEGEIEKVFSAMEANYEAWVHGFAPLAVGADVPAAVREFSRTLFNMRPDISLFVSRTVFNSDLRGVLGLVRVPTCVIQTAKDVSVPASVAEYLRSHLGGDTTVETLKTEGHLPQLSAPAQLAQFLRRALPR

Row | SMILES | Kd (ShHTL7) | induction of AtD14-AtMAX2 interaction (Y2H) (AtD14-AtMAX2 interaction) | IC50 (ShHTL7 T124K) | IC50 (ShHTL7 M219A) | IC50 (ShHTL7 F134K) | IC50 (ShHTL7 T157Y) | IC50 (ShHTL7 T142L) | IC50 (ShHTL7 T190F) | IC50 (ShHTL7 Y26F) | IC50 (ShHTL7 S95C) | IC50 (ShHTL7 M219V) | relative percentage of hydrolysis by ShHTL7H246A, source data average (ShHTL7H246A)
1 | CC1=C[C@H](O/C=C2/C(=O)O[C@@H]3c4ccccc4C[C@H]23)OC1=O (racemic) [rac-GR24, reference compound] | 0.92 ± 0.01 µM | – | – | – | – | – | – | – | – | – | – | –
2 | CC1=CC(OC(=O)N2CCN(C(=O)COc3ccc(Br)cc3C)CC2)OC1=O (stereo not drawn) [4a] | – | did not promote the interaction | – | – | – | – | – | – | – | – | – | –
3 | CC1=C[C@@H](OC(=O)N2CCN(C(=O)COc3ccc(Br)cc3C)CC2)OC1=O [(R)-4a] | – | – | 1 µM | > 100 µM | 62.1 µM | 23.3 µM | 1.88 µM | 4.69 µM | 29.9 µM | 43.7 µM | 22 µM | –
4 | CC1=C[C@H](OC(=O)N2CCN(C(=O)COc3ccc(Br)cc3C)CC2)OC1=O [(S)-4a] | – | – | 0.435 µM | 6.53 µM | 0.613 µM | 0.949 µM | 0.3 µM | 1.07 µM | 0.233 µM | 0.293 µM | 0.347 µM | 0.5315%
